Assay results taken from patent US9737495B2, “Process for obtaining purified pterostilbene and methods of use thereof” (Indus Biotech Private Limited, priority 2009, dated 2017).
Where two headings read alike, the source gives them in different places.

Columns and labels:
[1] = system: 3-NP induced HD in rats; assay: 3-NP induced HD in rats: brain wet weight; type: in vivo, Wistar rats; conditions: Day 13, 30 mg/kg p.o. + 3-NPA
Protocol: (§1) 3-NP (20 mg/kg i.p., daily in 2 divided doses) was administered to all the Wistar rats of weight range 250-300 g. in two divided doses at 12 hr interval for 9-11 days until disease is induced (acutely ill). It took 12 days to completely induce the disease symptoms. 3-NP was diluted with water and the pH will be adjusted upto 7.4 with NaOH. It was administered intraperitoneally (i.p.) at a dose of 10 mg/kg every 12 hrs (8:00 am and 8:00 pm) for 12 days (total daily dose 20 mg/kg). The observations were done on day 0, 7, 9, 11 and 13. The test compound was administered for the same period p.o. (per oral) one hour before 3-NP injection (at 7:00 AM daily) at dose of 30 mg/kg, p.o. The experimental groups were as follows: 1) Healthy Control: No treatment 2) HD control (3-NP+cyclodextrin) 3) TEST COMPOUND (30 mg/kg, p.o. daily complexed with cyclodextrin) treated.
On day 13, the brains of the rats were dissected out and cleaned. The wet weight of the brains were recorded for each rat. The results are also graphically represented in FIG. 3
On day 13, the brains of the rats were dissected out and cleaned. The wet weight of the brains were recorded for each rat.

[2] = biological target: T1, Human recombinant deacetylase sirtuin SIRT2 (Homo sapiens, UniProt Q8IXJ6); assay: SIRT2 inhibition, Fluor de Lys fluorimetric deacetylase assay (in vitro); type: biochemical; conditions: read-out: IC50 for SIRT2 (converted)
T1 construct: host or cells: E. coli
T1 sequence (Q8IXJ6 1-389): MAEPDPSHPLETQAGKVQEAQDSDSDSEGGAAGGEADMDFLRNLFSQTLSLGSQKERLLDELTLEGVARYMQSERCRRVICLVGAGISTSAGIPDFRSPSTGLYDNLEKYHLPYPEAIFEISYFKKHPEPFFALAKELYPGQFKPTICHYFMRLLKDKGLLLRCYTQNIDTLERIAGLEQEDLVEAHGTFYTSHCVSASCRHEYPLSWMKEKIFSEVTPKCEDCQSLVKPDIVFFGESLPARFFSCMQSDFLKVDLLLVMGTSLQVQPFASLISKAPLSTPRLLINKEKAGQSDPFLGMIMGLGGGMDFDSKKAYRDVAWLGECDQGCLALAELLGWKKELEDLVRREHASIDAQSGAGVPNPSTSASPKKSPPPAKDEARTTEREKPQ
Protocol: (§2) Human recombinant deacetylase sirtuin SIRT2 expressed in E. coli was used. Test compound (1, 10, 100 and 1000 μg/ml conc.) and/or vehicle was pre-incubated with 2 μg/ml enzyme in Tris-HCl buffer pH 8.0 for 15 minutes at 37° C. The reaction is initiated by addition of 25 μM Fluor de Lys-SIRT1 and 150 μM NAD for another 120 minute incubation period and is terminated by further addition of Fluor de Lys Developer. Determination of the amount of de-acetate Fluor de Lys formed is read spectrofluorimetrically with excitation at 360 nm and emission at 465 nm. The concentration-response (% inhibition) curve was plotted and IC50 was calculated.
as §2, with “37 °C.” for “37° C.”

[3] = biological target: T2, SIRT1 (Homo sapiens, UniProt Q96EB6); assay: SIRT1 inhibition, Fluor de Lys fluorimetric deacetylase assay (in vitro); type: biochemical; conditions: read-out: IC50 for SIRT1 (converted)
T2 sequence (Q96EB6 1-747): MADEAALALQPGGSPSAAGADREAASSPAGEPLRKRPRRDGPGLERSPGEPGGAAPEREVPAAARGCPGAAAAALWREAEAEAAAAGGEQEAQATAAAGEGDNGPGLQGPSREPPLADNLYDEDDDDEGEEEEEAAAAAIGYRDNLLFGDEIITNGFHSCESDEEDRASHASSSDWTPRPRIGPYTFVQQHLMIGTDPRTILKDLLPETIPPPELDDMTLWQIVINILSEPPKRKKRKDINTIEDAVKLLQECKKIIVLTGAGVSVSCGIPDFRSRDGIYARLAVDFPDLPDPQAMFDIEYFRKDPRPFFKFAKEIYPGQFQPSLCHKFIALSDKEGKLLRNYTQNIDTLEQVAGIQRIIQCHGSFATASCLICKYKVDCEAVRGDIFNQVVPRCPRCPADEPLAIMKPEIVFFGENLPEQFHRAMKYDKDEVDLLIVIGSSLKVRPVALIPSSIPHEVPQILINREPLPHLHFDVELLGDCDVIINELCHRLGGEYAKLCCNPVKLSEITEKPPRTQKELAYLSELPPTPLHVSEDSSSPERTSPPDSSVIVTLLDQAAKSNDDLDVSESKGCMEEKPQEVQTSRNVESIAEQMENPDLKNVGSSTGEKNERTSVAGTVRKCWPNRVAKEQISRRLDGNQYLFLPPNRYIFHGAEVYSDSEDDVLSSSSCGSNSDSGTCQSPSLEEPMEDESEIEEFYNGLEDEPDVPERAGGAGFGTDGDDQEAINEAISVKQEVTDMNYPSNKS

[4] = system: 3-NP induced HD in rats; assay: 3-NP induced HD in rats: neurological behavioral grading; type: in vivo, Wistar rats; conditions: for neurological behavioral changes (neurological problems score, grades 0-5) / neurological score, % change from cyclo + 3-NPA treatment: 30 mg/kg p.o. + 3-NPA
Protocol: as §1
Behavioral changes were recorded daily, and immediately before sacrifice, graded according to the neurological scale described. A total of 6 grades included: • Grade 0: normal behavior; • Grade 1: general slowness in movement due to mild hind-limb impairment; • Grade 2: prominent gait abnormality with poor coordination; • Grade 3: nearly complete hind-limb paralysis; • Grade 4: incapability to move due to four-limb impairment; and • Grade 5: recumbence.

[5] = system: 3-NP induced HD in rats; assay: 3-NP induced HD in rats: body weight; type: in vivo, Wistar rats; conditions: for % difference of body weights: 30 mg/kg p.o. daily complexed with cyclodextrin + 3-NPA 20 mg/kg/day i.p., n=6
Protocol: as §1

[6] = system: 3-NP induced HD in rats; assay: 3-NP induced HD in rats: squares crossed in open field test; type: in vivo, Wistar rats; conditions: 30 mg/kg p.o. + 3-NPA
Protocol: as §1

[7] = test conc. 1-1000 μg/ml, pH 8.0, 37° C.

COc1cc(/C=C/c2ccc(O)cc2)cc(OC)c1 [Test compound, pterostilbene]
Brain weight (g)-Mean ± SEM [1]: 1.605 ± 0.0659 g
IC50 ([2]; conversion of the μg/ml value): 45 µM
IC50 [2, 7]: 45.6 µM
IC50 ([3]; conversion of the μg/ml value): 47 µM
IC50 [3, 7]: 47.2 µM
neurological behavioral changes (neurological problems score, grades 0-5) ([4]; Day 7): 0
neurological behavioral changes (neurological problems score, grades 0-5) ([4]; Day 9): 1
neurological score, % change from cyclo + 3-NPA treatment ([4]; Day 9): −83.33%
neurological behavioral changes (neurological problems score, grades 0-5) ([4]; Day 11): 7
neurological score, % change from cyclo + 3-NPA treatment ([4]; Day 11): −30%
neurological behavioral changes (neurological problems score, grades 0-5) ([4]; Day 13 (after 12-day treatment)): 13
neurological score, % change from cyclo + 3-NPA treatment ([4]; Day 13): −23.52%
reduction of neurological problems as compared to vehicle (cyclo+3-NPA) group ([4]; after 12-day treatment (Day 13), 30 mg/kg p.o.): 23.52%
% difference of body weights ([5]; Day 7): 1.90 ± 3.72%
% difference of body weights ([5]; Day 9): −0.82 ± 3.77%
% difference of body weights ([5]; Day 11): −2.53 ± 3.70%
% difference of body weights ([5]; Day 13): −6.08 ± 4.10%
reduction in body weight ([5]; after 11 days, 30 mg/kg p.o. + 3-NP (3-NP alone 12.48%)): 2.53%
number of squares crossed in open field test ([6]; Day 7): 144.17 ± 7.47
number of squares crossed in open field test ([6]; Day 9): 125.67 ± 6.22
number of squares crossed in open field test ([6]; Day 11): 109.00 ± 13.72
number of squares crossed in open field test ([6]; Day 13): 77.83 ± 6.92
